Consider two compounds from US9890407B2, “Method for synthesizing cellulose in vitro” (University of Virginia Patent Foundation, priority 2013, dated 2018).

Each structure is given as a SMILES string.

This experiment has as its target T1, Rhodobacter sphaeroides BcsA-B complex (cellulose synthase), wild type, BcsA SEQ ID NO: 1, BcsB SEQ ID NO: 3 (Cereibacter sphaeroides, UniProt Q3J125).
T1 construct: pETDuet, E. coli C43; purified, reconstituted in nanodiscs, proteoliposomes or detergent
T1 sequence (Q3J125 1-788): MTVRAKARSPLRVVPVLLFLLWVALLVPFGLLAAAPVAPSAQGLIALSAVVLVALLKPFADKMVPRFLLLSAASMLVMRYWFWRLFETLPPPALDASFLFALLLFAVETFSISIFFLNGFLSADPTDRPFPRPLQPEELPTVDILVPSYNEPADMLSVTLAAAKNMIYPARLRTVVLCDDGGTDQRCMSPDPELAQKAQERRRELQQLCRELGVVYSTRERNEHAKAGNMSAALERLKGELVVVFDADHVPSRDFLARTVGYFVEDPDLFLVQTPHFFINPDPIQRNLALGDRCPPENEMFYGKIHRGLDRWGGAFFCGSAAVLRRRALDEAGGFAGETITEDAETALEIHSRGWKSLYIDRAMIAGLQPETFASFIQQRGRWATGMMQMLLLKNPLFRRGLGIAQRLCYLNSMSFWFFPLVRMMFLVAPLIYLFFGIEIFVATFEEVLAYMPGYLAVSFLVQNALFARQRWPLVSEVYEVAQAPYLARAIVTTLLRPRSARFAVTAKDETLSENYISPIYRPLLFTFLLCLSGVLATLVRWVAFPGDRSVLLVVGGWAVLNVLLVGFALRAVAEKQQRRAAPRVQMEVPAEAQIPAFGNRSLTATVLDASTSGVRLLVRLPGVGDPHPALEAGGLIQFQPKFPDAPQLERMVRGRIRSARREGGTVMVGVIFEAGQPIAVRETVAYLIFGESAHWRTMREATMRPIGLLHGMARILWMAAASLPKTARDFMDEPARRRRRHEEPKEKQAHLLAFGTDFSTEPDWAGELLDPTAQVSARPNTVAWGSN
T1 sequence (Q3J126 21-725 partner): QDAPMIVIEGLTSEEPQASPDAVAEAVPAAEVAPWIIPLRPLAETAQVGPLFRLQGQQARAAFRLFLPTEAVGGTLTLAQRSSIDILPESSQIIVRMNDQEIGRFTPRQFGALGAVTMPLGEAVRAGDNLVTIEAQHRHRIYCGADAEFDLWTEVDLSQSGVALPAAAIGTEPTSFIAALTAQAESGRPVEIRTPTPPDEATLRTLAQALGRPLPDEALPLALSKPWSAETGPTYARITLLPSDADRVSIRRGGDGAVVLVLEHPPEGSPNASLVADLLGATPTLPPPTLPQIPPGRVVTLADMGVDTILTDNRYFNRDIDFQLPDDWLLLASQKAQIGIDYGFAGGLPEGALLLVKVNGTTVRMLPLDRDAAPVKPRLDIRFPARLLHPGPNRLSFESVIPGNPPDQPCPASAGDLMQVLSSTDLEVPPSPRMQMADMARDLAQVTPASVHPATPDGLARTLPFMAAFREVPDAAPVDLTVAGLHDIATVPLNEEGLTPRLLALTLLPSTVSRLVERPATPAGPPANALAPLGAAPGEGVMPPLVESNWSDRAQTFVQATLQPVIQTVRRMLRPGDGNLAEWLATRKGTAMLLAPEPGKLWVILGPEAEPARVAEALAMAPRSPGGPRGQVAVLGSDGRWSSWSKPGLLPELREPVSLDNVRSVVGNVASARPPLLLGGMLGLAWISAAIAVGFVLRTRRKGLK
The experiment in a line: Cellulose synthesis sedimentation assay, inhibition by nucleoside diphosphates, PL-reconstituted BcsA-B. Type of experiment: biochemical. The conditions noted are these: 0.5 mM UDP-Glc; increasing nucleotide concentrations; 60 min, 37° C. The method, then:
FIG. 4A-4C (also referred to as Example 1, FIG. 4): Product inhibition of cellulose synthase. (FIG. 4A) Enzyme-coupled cellulose synthesis assays were performed as described in FIG. 3 in the absence or presence of 0.1 mg/ml E. coli BesZ. […] Inset: Radioactive sedimentation assay performed with ND-reconstituted BcsA-B synthesizing cellulose in the absence or presence of BcsZ. (FIG. 4B) Inhibition of cellulose synthesis by UDP. Cellulose synthesis sedimentation assays were performed with 1 μM PL-reconstituted BesA-B in the presence of increasing concentrations of the indicated nucleotides and 0.5 mM UDP-Glc for 60 min at 37° C. The obtained product is quantified relative to the polymer formed in the absence of any nucleoside diphosphate. (FIG. 4C) UDP is a competitive inhibitor of cellulose synthase. […] The products are quantified relative to the polymer formed in the absence of UDP and the presence of 5 mM UDP-Glc. […]
Standard cellulose synthase sedimentation assays were performed by incubating 1 μM of cellulose synthase complexes, either in PLs, ND or detergent micelles, in the presence of 30 μM c-di-GMP, 20 mM MgCl2, 5 mM UDP-Glc and 0.25 μCi UDP-[3H]-Glc in AB-buffer lacking glycerol and containing only 0.1 M NaCl. […] Following paper chromatography, the high molecular weight polymer retained at the origin was quantified by scintillation counting. […]

On to `Nc1nc2c(ncn2[C@@H]2O[C@H](COP(=O)(O)OP(=O)(O)O)[C@@H](O)[C@H]2O)c(=O)[nH]1` [guanosine-diphosphate], for which the “inhibition of cellulose synthesis by nucleoside diphosphates” value is recorded as “do not inhibit cellulose synthesis”.
Turning to `Nc1ncnc2c1ncn2[C@@H]1O[C@H](COP(=O)(O)OP(=O)(O)O)[C@@H](O)[C@H]1O` [adenosine-diphosphate], the “inhibition of cellulose synthesis by nucleoside diphosphates” value is given as “do not inhibit cellulose synthesis”.
